The values that follow come from patent US12421225B2, “Heteroaromatic amide derivative and medicament containing the same” (KAKEN PHARMACEUTICAL CO., LTD., priority 2018, dated 2025).

For one test, the target named is human Nav1.5 (Homo sapiens (Human), UniProt Q14524). As to the kind of experiment: Human Nav1.5 inhibitory activity evaluation (automated patch clamp QPatch16X, HEK293 cells stably expressing human Nav1.5). Type of test: cell-based. How it is done: Test Example 2: Human Nav1.5 Inhibitory Activity Evaluation
A cell line in which human Nav1.5 was stably expressed in HEK293 cells was used. DMEM supplemeted with 15% fetal bovine serum, 500 μg/ml geneticin, 100 units/ml penicillin, 100 μg/ml streptomycin, 20 mM HEPES was used as culture medium under the conditions of 37° C. and 5% CO2 in T175 flasks to carry out culturing. When 60-80% confluence was reached, a cell suspension of about 0.5-5.0×10^6 cells/mL was prepared. The amount of current through human Nav1.5 was recorded using a fully automatic patch clamp device QPatch16X at room temperature. As the extracellular solution, 145 mM NaCl, 4 mM KCl, 1 mM MgCl2, 2 mM CaCl2, 10 mM Glucose, and 10 mM HEPES at pH 7.4 was used. As the intracellular solution, 135 mM CsF, ⅕ mM EGTA/CsOH, 10 mM HEPES, and 10 mM NaCl at pH 7.3 was used. The test compounds were dissolved in DMSO and diluted with the extracellular solution to attend the DMSO concentration of 0.1% at the time of assay.
The current response was obtained at a sampling frequency of 25 kHz, and noise was removed with a 3 kHz low-pass filter. The holding potential was −80 mV. Correction of the leakage current was carried out by applying a step pulse of −100 mV before the test pulse. In order to investigate human Nav1.5 inhibitory effect of the test compound, test pulses imitating the action potential of cardiomyocytes were continuously given 20 times. The test pulses were given before and after the test compound addition.
The inhibitory activity of the test compound was determined based on the amount of inward current generated by the 20th depolarization pulse, and the 50% inhibitory concentration (IC50) was calculated from the concentration-response curve.
A general note: In patch-clamp work, channel activity is measured electrically.

The target in a further test is human Nav1.7 (Homo sapiens (Human), UniProt Q15858). As to the kind of experiment: Human Nav1.7 inhibitory activity evaluation (automated patch clamp QPatch16X, HEK293A cells stably expressing human Nav1.7 and human Navβ1). Type of test: cell-based. In short, it runs like this:
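IC50 calculated from the concentration-response of inward current evoked by the second −10 mV, 50 ms depolarisation, which follows a 15 s conditioning step at roughly 30-40% inactivation and a 100 ms −120 mV interval. Cells: HEK293A expressing human Nav1.7/Navβ1, automated patch clamp, room temperature, 0.1% DMSO final.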

The mark [1] stands for this setting: HEK293 cells stably expressing human Nav1.5, automated patch clamp QPatch16X.
Where [2] appears, read: HEK293A cells stably expressing human Nav1.7 and human Navβ1, automated patch clamp QPatch16X.
Setting [3] is: human Nav1.5, automated patch clamp.
Where [4] appears, read: human Nav1.7, automated patch clamp.

Sequence of human Nav1.5 (Q14524 whole entry): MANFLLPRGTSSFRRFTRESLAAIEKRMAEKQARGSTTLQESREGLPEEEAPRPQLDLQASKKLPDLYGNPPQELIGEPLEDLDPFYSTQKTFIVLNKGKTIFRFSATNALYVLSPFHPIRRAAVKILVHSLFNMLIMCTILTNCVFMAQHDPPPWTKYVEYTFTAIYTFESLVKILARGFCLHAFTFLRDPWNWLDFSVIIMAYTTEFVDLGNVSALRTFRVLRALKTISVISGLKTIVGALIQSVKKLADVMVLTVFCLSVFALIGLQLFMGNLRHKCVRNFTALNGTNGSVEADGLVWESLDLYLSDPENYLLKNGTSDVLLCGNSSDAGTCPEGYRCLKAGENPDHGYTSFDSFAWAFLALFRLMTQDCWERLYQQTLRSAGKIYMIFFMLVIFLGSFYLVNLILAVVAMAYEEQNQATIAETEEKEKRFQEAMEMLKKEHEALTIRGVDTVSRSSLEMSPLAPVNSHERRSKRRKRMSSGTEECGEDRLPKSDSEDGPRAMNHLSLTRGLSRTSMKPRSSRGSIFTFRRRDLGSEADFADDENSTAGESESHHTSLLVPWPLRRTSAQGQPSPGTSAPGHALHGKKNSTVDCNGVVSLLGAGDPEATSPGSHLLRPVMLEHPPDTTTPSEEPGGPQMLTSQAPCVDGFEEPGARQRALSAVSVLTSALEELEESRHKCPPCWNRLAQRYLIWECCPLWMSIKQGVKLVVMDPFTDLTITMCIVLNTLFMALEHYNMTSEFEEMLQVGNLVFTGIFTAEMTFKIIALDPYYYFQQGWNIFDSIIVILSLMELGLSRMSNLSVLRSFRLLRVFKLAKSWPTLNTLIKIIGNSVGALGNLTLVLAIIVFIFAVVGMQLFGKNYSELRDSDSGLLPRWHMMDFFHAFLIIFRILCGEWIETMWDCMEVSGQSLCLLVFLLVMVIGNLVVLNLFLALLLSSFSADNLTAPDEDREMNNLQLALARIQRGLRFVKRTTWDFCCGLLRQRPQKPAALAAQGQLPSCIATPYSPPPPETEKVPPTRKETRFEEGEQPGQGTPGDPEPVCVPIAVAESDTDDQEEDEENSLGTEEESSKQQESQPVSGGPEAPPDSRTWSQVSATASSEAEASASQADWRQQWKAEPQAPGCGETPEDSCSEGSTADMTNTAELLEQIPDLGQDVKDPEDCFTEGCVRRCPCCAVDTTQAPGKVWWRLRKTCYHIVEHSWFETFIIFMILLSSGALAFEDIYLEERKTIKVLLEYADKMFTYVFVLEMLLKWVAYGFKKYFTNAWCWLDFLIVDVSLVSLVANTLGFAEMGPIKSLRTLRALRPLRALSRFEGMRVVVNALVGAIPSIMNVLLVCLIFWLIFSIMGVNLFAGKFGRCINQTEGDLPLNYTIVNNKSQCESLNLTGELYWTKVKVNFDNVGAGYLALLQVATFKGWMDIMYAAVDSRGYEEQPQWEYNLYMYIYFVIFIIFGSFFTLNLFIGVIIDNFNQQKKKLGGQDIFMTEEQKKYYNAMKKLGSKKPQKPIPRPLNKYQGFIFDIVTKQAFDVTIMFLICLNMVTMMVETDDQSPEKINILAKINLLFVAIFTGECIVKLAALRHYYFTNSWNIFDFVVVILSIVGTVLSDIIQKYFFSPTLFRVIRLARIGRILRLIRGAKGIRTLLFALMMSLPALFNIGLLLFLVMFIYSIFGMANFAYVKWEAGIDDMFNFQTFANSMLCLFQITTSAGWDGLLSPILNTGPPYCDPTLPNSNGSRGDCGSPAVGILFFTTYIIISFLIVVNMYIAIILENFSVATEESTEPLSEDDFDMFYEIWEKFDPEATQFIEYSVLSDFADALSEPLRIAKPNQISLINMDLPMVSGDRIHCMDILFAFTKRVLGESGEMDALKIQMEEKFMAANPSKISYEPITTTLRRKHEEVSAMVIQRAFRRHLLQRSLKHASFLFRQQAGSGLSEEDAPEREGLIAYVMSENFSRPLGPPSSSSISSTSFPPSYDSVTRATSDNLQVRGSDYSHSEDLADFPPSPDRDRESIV
Sequence of human Nav1.7 (Q15858 whole entry): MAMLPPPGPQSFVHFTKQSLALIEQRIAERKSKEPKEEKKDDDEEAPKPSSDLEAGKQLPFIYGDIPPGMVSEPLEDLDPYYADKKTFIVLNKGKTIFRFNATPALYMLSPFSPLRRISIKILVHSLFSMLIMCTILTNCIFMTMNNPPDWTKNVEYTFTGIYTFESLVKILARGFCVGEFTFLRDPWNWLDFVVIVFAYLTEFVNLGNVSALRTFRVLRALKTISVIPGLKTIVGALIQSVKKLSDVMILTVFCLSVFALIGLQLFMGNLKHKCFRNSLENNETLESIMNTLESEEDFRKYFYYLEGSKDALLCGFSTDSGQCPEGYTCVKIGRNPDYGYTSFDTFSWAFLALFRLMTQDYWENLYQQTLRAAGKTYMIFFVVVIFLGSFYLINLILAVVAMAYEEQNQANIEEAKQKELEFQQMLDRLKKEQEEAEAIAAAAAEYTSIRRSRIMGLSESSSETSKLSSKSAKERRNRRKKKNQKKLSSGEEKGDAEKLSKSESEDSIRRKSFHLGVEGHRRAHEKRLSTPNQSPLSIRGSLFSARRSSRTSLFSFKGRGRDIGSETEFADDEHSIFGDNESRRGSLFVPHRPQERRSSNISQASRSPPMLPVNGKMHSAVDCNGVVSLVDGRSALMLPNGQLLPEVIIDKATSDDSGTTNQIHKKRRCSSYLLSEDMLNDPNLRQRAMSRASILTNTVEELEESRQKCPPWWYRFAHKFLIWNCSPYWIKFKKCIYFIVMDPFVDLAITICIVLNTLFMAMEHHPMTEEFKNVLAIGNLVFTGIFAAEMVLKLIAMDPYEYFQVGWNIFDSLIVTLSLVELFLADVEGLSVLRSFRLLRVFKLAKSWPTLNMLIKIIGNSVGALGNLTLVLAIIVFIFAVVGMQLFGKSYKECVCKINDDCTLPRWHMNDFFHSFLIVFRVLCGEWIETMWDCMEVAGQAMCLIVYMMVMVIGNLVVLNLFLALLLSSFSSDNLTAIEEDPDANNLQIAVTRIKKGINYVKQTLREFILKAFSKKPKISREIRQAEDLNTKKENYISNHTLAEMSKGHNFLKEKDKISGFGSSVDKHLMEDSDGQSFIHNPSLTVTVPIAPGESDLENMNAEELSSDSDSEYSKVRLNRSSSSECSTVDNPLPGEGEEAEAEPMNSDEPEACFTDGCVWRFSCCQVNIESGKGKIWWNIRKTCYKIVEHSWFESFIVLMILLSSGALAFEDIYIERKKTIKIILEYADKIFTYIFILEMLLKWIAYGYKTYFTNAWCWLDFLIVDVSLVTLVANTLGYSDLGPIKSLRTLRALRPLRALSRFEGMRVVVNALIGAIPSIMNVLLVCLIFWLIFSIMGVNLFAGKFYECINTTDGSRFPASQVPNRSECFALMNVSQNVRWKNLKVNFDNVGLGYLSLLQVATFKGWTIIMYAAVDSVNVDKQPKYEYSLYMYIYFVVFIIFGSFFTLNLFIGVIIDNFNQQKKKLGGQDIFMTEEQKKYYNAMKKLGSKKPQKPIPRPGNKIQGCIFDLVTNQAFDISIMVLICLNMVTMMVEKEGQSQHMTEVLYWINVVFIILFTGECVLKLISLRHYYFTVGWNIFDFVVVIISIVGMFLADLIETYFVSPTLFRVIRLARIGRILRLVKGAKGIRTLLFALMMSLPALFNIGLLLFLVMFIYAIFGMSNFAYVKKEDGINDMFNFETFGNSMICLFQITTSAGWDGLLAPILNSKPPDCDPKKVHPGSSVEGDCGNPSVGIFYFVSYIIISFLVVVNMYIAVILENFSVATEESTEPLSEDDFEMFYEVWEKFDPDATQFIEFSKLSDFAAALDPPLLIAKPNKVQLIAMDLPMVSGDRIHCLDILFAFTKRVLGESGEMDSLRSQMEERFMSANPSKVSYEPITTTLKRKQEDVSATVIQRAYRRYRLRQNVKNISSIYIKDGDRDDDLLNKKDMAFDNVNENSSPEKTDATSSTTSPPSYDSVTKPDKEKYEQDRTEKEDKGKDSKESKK
Sequence of human Nav1.7 (Q07699 19-218 partner): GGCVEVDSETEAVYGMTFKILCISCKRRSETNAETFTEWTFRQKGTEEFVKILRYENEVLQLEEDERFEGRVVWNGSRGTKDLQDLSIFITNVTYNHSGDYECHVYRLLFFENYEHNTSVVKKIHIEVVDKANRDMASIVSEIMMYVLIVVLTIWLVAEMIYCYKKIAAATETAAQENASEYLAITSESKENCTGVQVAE

In general, IC50 refers to the concentration that inhibits the measured activity by half. With `O=C(N[C@H]1COc2ccc(CC(F)F)cc2C1)c1cc2n(n1)CCC(COCC(F)(F)F)O2` (single isomer, unassigned) [127 (isomer A)], the values for the IC50 against human Nav1.5 (setting [1]) and against human Nav1.7 (setting [2]) were no less than 3 µM and less than 1000 nM, respectively.

`O=C(N[C@H]1COc2ccc(COCC(F)(F)F)cc2C1)c1cc2n(n1)CCC(COCC(F)(F)F)O2` (single isomer, unassigned) [129 (isomer B)]: the IC50 against human Nav1.5 (setting [1]) was 1 to 3 µM; on human Nav1.7 (setting [2]), less than 1000 nM.

On to `O=C(N[C@H]1COc2ccc(-c3ccccn3)cc2C1)c1cc2n(n1)CCC(COCC(F)(F)F)O2` (single isomer, unassigned) [131 (isomer A)], for which the 50% inhibitory concentration (IC50) is 1 to 3 µM against human Nav1.5 (setting [1]) and less than 1000 nM on human Nav1.7 (setting [2]).

With `O=C(N[C@H]1COc2ccc(-c3ccccn3)cc2C1)c1cc2n(n1)CCC(COCC(F)(F)F)O2` (single isomer, unassigned) [131 (isomer B)], the IC50 on human Nav1.5 (setting [1]) is no less than 3 µM; at human Nav1.7 (setting [2]), less than 10000 nM.

As for `N#Cc1ccc2c(c1)C[C@@H](NC(=O)c1cc3n(n1)CCC(COC(F)(F)F)O3)CO2` (single isomer, unassigned) [134 (isomer B)], the IC50 at human Nav1.5 (setting [1]) was no less than 3 µM; against human Nav1.7 (setting [2]), less than 10000 nM.

With `O=C(N[C@H]1COc2ccc(CC(F)F)cc2C1)c1cc2n(n1)CCC(COC(F)(F)F)O2` (single isomer, unassigned) [136 (isomer A)], the half-inhibitory concentration (IC50) on human Nav1.5 (setting [1]) was less than 1 µM; against human Nav1.7 (setting [2]), less than 1000 nM.

For `O=C(N[C@H]1COc2ccc(CC(F)F)cc2C1)c1cc2n(n1)CCC(COC(F)(F)F)O2` (single isomer, unassigned) [136 (isomer B)], the half-inhibitory concentration (IC50) against human Nav1.5 (setting [1]) was 1 to 3 µM; at human Nav1.7 (setting [2]), less than 1000 nM.

Take `O=C(N[C@H]1COc2ccc(COCC(F)(F)F)cc2C1)c1cc2n(n1)CCC(COC(F)F)O2` (single isomer, unassigned) [140 (isomer A)]: the values for the half-inhibitory concentration (IC50) on human Nav1.5 (setting [3]) and against human Nav1.7 (setting [4]) were no less than 3 µM and less than 1000 nM, respectively.

`O=C(N[C@H]1COc2ccc(COCC(F)(F)F)cc2C1)c1cc2n(n1)CCC(COC(F)F)O2` (single isomer, unassigned) [140 (isomer B)]: the concentration for half-maximal inhibition (IC50) was 1 to 3 µM on human Nav1.5 (setting [3]) and less than 1000 nM on human Nav1.7 (setting [4]).

As to `O=C(N[C@H]1COc2ccc(CCOC(F)F)cc2C1)c1cc2n(n1)CCC(COC(F)F)O2` (single isomer, unassigned) [142 (isomer A)], the IC50 at human Nav1.5 (setting [3]) is 1 to 3 µM; against human Nav1.7 (setting [4]), less than 1000 nM.

Consider `O=C(N[C@H]1COc2ccc(CCOC(F)F)cc2C1)c1cc2n(n1)CCC(COC(F)F)O2` (single isomer, unassigned) [142 (isomer B)], for which the IC50 against human Nav1.5 (setting [3]) was no less than 3 µM; on human Nav1.7 (setting [4]) it was less than 1000 nM.

As for `N#Cc1ccc2c(c1)C[C@@H](NC(=O)c1cc3n(n1)CCC(CCOC(F)F)O3)CO2` (single isomer, unassigned) [146 (isomer B)], the concentration for half-maximal inhibition (IC50) is no less than 3 µM against human Nav1.5 (setting [3]) and less than 1000 nM at human Nav1.7 (setting [4]).

Regarding `O=C(N[C@H]1COc2ccc(Cl)cc2C1)c1cc2n(n1)CCC(CNCC(F)(F)F)O2` (single isomer, unassigned) [152 (isomer A)], the IC50 against human Nav1.5 (setting [3]) was no less than 3 µM; against human Nav1.7 (setting [4]), less than 1000 nM.

As to `O=C(N[C@H]1COc2ccc(Cl)cc2C1)c1cc2n(n1)CCC(CN1CCC(F)(F)C1)O2` (single isomer, unassigned) [153 (isomer A)], the 50% inhibitory concentration (IC50) is 1 to 3 µM on human Nav1.5 (setting [3]) and less than 1000 nM on human Nav1.7 (setting [4]).

With `N#Cc1ccc2c(c1)C[C@@H](NC(=O)c1cc3n(n1)CCC(CSC(F)(F)F)O3)CO2` (single isomer, unassigned) [156 (isomer A)], the IC50 at human Nav1.5 (setting [3]) was no less than 3 µM; against human Nav1.7 (setting [4]), less than 1000 nM.

Turning to `O=C(N[C@H]1COc2ccc(Cl)cc2C1)c1cc2n(n1)CCC(C(F)F)O2` (single isomer, unassigned) [158 (isomer A)], the figures for the 50% inhibitory concentration (IC50) on human Nav1.5 (setting [3]) and at human Nav1.7 (setting [4]) were no less than 3 µM and less than 1000 nM, respectively.

With `O=C(N[C@H]1COc2ccc(COCC(F)(F)F)cc2C1)c1cc2n(n1)CCC(C(F)F)O2` (single isomer, unassigned) [163 (isomer A)], the IC50 against human Nav1.5 (setting [3]) is 1 to 3 µM; at human Nav1.7 (setting [4]), less than 1000 nM.

On to `O=C(N[C@H]1COc2ccc(Cl)cc2C1)c1cc2n(n1)CCC(C(F)(F)F)O2` (single isomer, unassigned) [170 (isomer A)], for which the values for the IC50 against human Nav1.5 (setting [3]) and on human Nav1.7 (setting [4]) were 1 to 3 µM and less than 1000 nM, respectively.

For the compound `O=C(N[C@H]1COc2ccc(Cl)cc2C1)c1cc2n(n1)CCC(C(F)(F)F)O2` (single isomer, unassigned) [170 (isomer B)], the IC50 at human Nav1.5 (setting [3]) is less than 1 µM; against human Nav1.7 (setting [4]), less than 1000 nM.

As to `O=C(N[C@H]1COc2ccc(CC(F)F)cc2C1)c1cc2n(n1)CCC(C(F)(F)F)O2` (single isomer, unassigned) [173 (isomer A)], the concentration for half-maximal inhibition (IC50) on human Nav1.5 (setting [3]) is no less than 3 µM; against human Nav1.7 (setting [4]) it was less than 1000 nM.

`O=C(N[C@H]1COc2ccc(COCC(F)(F)F)cc2C1)c1cc2n(n1)CC(C(F)(F)F)O2` (single isomer, unassigned) [184 (isomer A)]: the results for the concentration for half-maximal inhibition (IC50) against human Nav1.5 (setting [3]) and against human Nav1.7 (setting [4]) were 1 to 3 µM and less than 1000 nM, respectively.

For `O=C(N[C@H]1COc2ccc(COCC(F)(F)F)cc2C1)c1cc2n(n1)CC(COCC1CC1)O2` (single isomer, unassigned) [186 (isomer A)], the IC50 against human Nav1.5 (setting [3]) is no less than 3 µM; against human Nav1.7 (setting [4]) it was less than 10000 nM.

Turning to `O=C(N[C@H]1COc2ccc(COCC(F)(F)F)cc2C1)c1cc2n(n1)CC(COCC1CC1)O2` (single isomer, unassigned) [186 (isomer B)], the results for the half-maximal inhibitory concentration (IC50) against human Nav1.5 (setting [3]) and on human Nav1.7 (setting [4]) were 1 to 3 µM and less than 1000 nM, respectively.

As for `O=C(N[C@H]1COc2ccc(COCC(F)(F)F)cc2C1)c1cc2n(n1)CC(COCC(F)(F)F)O2` (single isomer, unassigned) [188 (isomer A)], the IC50 was less than 1 µM against human Nav1.5 (setting [3]) and less than 1000 nM against human Nav1.7 (setting [4]).

Consider `O=C(N[C@H]1COc2ccc(COCC(F)(F)F)cc2C1)c1cc2n(n1)CC(COCC(F)(F)F)O2` (single isomer, unassigned) [188 (isomer B)], for which the values for the 50% inhibitory concentration (IC50) against human Nav1.5 (setting [3]) and on human Nav1.7 (setting [4]) were no less than 3 µM and less than 1000 nM, respectively.

With `O=C(N[C@H]1COc2ccc(CCOC(F)F)cc2C1)c1cc2n(n1)CC(COCC(F)(F)F)O2` (single isomer, unassigned) [190 (isomer A)], the figures for the IC50 against human Nav1.5 (setting [3]) and against human Nav1.7 (setting [4]) were no less than 3 µM and less than 1000 nM, respectively.

With `Cc1cnc(-c2ccc3c(c2)C[C@@H](NC(=O)c2cc4n(n2)CC(COCC(F)(F)F)O4)CO3)cn1` (single isomer, unassigned) [194 (isomer B)], the IC50 was no less than 3 µM on human Nav1.5 (setting [3]) and less than 1000 nM on human Nav1.7 (setting [4]).

For `O=C(N[C@H]1COc2ccc(COCC(F)(F)F)cc2C1)c1cc2n(n1)CC(COC(F)(F)F)O2` (single isomer, unassigned) [196 (isomer A)], the IC50 against human Nav1.5 (setting [3]) is 1 to 3 µM; against human Nav1.7 (setting [4]), less than 1000 nM.

Regarding `O=C(N[C@H]1COc2ccc(COCC(F)(F)F)cc2C1)c1cc2n(n1)CC(COC(F)(F)F)O2` (single isomer, unassigned) [196 (isomer B)], the values for the IC50 against human Nav1.5 (setting [3]) and against human Nav1.7 (setting [4]) were no less than 3 µM and less than 1000 nM, respectively.

In the case of `O=C(N[C@H]1COc2ccc(CC(F)F)cc2C1)c1cc2n(n1)CC(COC(F)(F)F)O2` (single isomer, unassigned) [198 (isomer B)], the concentration for half-maximal inhibition (IC50) against human Nav1.5 (setting [3]) was no less than 3 µM; on human Nav1.7 (setting [4]) it was less than 1000 nM.

Take `N#Cc1ccc2c(c1)C[C@@H](NC(=O)c1cc3n(n1)CC(CSCC(F)(F)F)O3)CO2` (single isomer, unassigned) [200 (isomer A)]: the concentration for half-maximal inhibition (IC50) against human Nav1.5 (setting [3]) is no less than 3 µM; at human Nav1.7 (setting [4]) it was less than 10000 nM.
